Biological target: Bruton's Tyrosine Kinase (BTK), inactivated state (Homo sapiens (Human), UniProt Q06187)
Assay: Bruton's Tyrosine Kinase (BTK) Inhibition TR-FRET (Time Resolved FRET) competition assay
Type: binding
Conditions: Kinase Tracer 178, BTK-Eu, 18-24 h at 14° C.
Experimental: Bruton's Tyrosine Kinase (BTK) Inhibition TR-FRET (Time Resolved FRET) Assay
This BTK competition assay measures compound potency (IC50) for the inactivated state of Bruton's Tyrosine Kinase using FRET (Forster/Fluorescence Resonance Energy Transfer) technology. The BTK-Eu complex was incubated on ice one hour prior to use at a starting concentration of 50 nM BTK-Bioease™: 10 nM Eu-streptavidin (Perkin-Elmer Catalog# AD0062). The assay buffer consisted of 20 mM HEPES (pH 7.15), 0.1 mM DTT, 10 mM MgCl2, 0.5 mg/ml BSA with 3% Kinase Stabilizer (Fremont Biosolutions, Catalog # STB-K02). After 1 h, the reaction mixture from above was diluted 10 fold in assay buffer to make 5 nM BTK: 1 nM Eu-Streptavidin complex (donor fluorophore). 18 μl of a mixture of 0.11 nM BTK-Eu and 0.11 nM Kinase Tracer 178 (Invitrogen, Catalog # PV5593,) with BTK-Eu alone as no negative control, was then dispensed into 384-well flat bottom plates (Greiner, 784076). Compounds to be tested in assay were prepared as 10× concentrations and serial dilution in half-log increments was performed in DMSO so as to generate 10 point curves. To initiate the FRET reaction, compounds prepared as 10× stock in DMSO was added to the plates and the plates were incubated 18-24 h at 14° C.
After the incubation the plates were read on a BMG Pherastar Fluorescent plate reader (or equivalent) and used to measure the emission energy from the europium donor fluorophore (620 nm emission) and the FRET (665 nm emission). The negative control well values were averaged to obtain the mean minimum. The positive “no inhibitor” control wells were averaged to obtain the mean maximum. Percent of maximal FRET was calculated using following equation: % max FRET=100×[(FSRcmpd−FSRmean min)/(FSRmean max−FSRmean min)] where FSR=FRET Signal ratio. % Max FRET curves were plotted in Activity Base (Excel) and the IC50(%), hill slope, z′ and % CV were determined. The mean IC50 and standard deviation will be derived from duplicate curves (singlet inhibition curves from two independent dilutions) using Microsoft Excel.

Bruton's Tyrosine Kinase (BTK), inactivated state, sequence (Q06187 whole entry): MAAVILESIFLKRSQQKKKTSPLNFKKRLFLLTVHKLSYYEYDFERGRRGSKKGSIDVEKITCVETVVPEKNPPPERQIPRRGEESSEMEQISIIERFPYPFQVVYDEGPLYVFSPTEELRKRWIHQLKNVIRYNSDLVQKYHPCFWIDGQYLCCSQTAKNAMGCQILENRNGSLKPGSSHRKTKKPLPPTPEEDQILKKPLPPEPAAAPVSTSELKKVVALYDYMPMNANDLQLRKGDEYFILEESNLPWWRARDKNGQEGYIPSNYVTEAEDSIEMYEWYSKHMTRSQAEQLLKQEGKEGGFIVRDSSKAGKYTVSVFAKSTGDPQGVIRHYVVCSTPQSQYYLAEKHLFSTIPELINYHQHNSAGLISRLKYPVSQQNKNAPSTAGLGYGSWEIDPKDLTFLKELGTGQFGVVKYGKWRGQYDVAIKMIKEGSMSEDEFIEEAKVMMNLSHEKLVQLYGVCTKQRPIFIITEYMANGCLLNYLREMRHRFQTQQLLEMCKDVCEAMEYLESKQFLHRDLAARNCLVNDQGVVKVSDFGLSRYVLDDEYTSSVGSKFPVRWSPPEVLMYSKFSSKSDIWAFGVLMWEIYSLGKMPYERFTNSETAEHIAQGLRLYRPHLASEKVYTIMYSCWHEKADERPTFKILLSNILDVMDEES

| IC50 [µM] | SMILES |
| --- | --- |
| 0.47 | CC(C)(C)c1ccc(C(=O)N[C@@H]2CCCN(c3nc(C(N)=O)c(Nc4ccccn4)s3)C2)cc1 [Compound 7, 2-[(R)-3-(4-tert-Butyl-benzoylamino)-piperidin-1-yl]-5-(pyridin-2-ylamino)-thiazole-4-carboxylic acid amide] |
| 6.24 | NC(=O)c1nc(N2CCC[C@@H](NC(=O)Cc3ccccc3)C2)sc1Nc1ccccn1 [Compound 5, 2-((R)-3-Phenylacetylamino-piperidin-1-yl)-5-(pyridin-2-ylamino)-thiazole-4-carboxylic acid amide] |
| 1.61 | NC(=O)c1nc(N2CCC[C@@H](NS(=O)(=O)c3ccccc3)C2)sc1Nc1ccccn1 [Compound 9, 2-((R)-3-Benzenesulfonylamino-piperidin-1-yl)-5-(pyridin-2-ylamino)-thiazole-4-carboxylic acid amide] |
| 7.51 | Cc1cccc(CC(=O)N[C@@H]2CCCN(c3nc(C(N)=O)c(Nc4ccccn4)s3)C2)c1 [Compound 6, 5-(Pyridin-2-ylamino)-2-[(R)-3-(2-m-tolyl-acetylamino)-piperidin-1-yl]-thiazole-4-carboxylic acid amide] |
| 7.74 | NC(=O)c1nc(N2CCC[C@@H](NC(=O)N3Cc4ccc(Cl)cc4C3)C2)sc1Nc1ccccn1 [Compound 2, 5-Chloro-1,3-dihydro-isoindole-2-carboxylic acid {(R)-1-[4-carbamoyl-5-(pyridin-2-ylamino)-thiazol-2-yl]-piperidin-3-yl}-amide] |
| 5.07 | CS(=O)(=O)N[C@@H]1CCCN(c2nc(C(N)=O)c(Nc3ccccn3)s2)C1 [Compound 8, 2-((R)-3-Methanesulfonylamino-piperidin-1-yl)-5-(pyridin-2-ylamino)-thiazole-4-carboxylic acid amide] |
| 5.8 | CC(C)S(=O)(=O)N[C@@H]1CCCN(c2nc(C(N)=O)c(Nc3ccccn3)s2)C1 [Compound 10, 2-[(R)-3-(Propane-2-sulfonylamino)-piperidin-1-yl]-5-(pyridin-2-ylamino)-thiazole-4-carboxylic acid amide] |
| 6.03 | CC(=O)N[C@@H]1CCCN(c2nc(C(N)=O)c(Nc3ccccn3)s2)C1 [Compound 12, 2-((R)-3-Acetylamino-piperidin-1-yl)-5-(pyridin-2-ylamino)-thiazole-4-carboxylic acid amide] |
| 1.21 | CC(C)(C)OC(=O)N[C@@H]1CCCN(c2nc(C(N)=O)c(Nc3ccccn3)s2)C1 [Compound 3, {(R)-1-[4-Carbamoyl-5-(pyridin-2-ylamino)-thiazol-2-yl]-piperidin-3-yl}-carbamic acid tert-butyl ester] |
| 1.73 | CC(C)(C)c1ccc(C(=O)N[C@@H]2CCCN(c3nc(C(N)=O)c(Nc4ccccn4)s3)C2)cn1 [Compound 4, 6-tert-Butyl-N-{(R)-1-[4-carbamoyl-5-(pyridin-2-ylamino)-thiazol-2-yl]-piperidin-3-yl}-nicotinamide] |

— patent US9359345B2, “Thiazole derivatives as inhibitors of Bruton's tyrosine kinase” (Hoffmann-La Roche Inc., priority 2012, dated 2016)
